Experimental data published in patent US10947216B2, “Amide compounds and method for making and using” (Rigel Pharmaceuticals, Inc., priority 2016, dated 2021).
Counter-ions that a name gives are not always drawn. Like-named read-outs stand apart in the source and are kept apart here.

Tests used:
IL-23 (p19/p40) = assay: IL23-p19 ELISA, dendritic cells (DC differentiated from human PBMC, IFNγ primed), LPS stimulated; type: cell-based; settings: Dendritic cell, human PBMC-derived dendritic cells, 1 h compound pre-incubation, LPS 1 μg/ml 18 hours, 10 pt
Experimental: Compound Screening Using DC Cells
I. Differentiation of PBMC's to DC Cells:
After 2 hours, the media including floating cells was aspirated out carefully and 12 ml of fresh RPMI media (10% FBS) containing GMCSF (100 ng/ml) and IL4 (20 ng/ml) was added, and the flask was kept in a 37° C. incubator for 7 days.
After 3 days, fresh GMCSF (100 ng/ml) and IL4 (20 ng/ml) were added to the flask and the incubation continued. After 7 days, the fully differentiated cells were harvested by spinning down (1200 rpm/5 min) and aspirating the media. The cells were suspended in fresh RPMI media (10% FBS) containing 50 ng/ml IFNγ (1000 U/ml) and then plated (50K/well in 100 μl) onto a white clear bottom 96 well plate and left in a 37° C. incubator for 24 hours.
II. Addition of Compounds:
After 24 hours incubation, 100 μl of RPMI media was added containing 2× concentrated test compound per well to the above cell-culture media (final concentration becomes 1×) and the plates were pre-incubated for 1 hour at 37° C. before stimulating with LPS.
The mixture was shaken and incubated the plates at 37° C. for an additional 18 hours.
155 μl of the supernatant was harvested from each well carefully (without the tip touching the bottom of the well) and to the remaining 50 μl/well of the cell culture plate was added 50 μl of Cell Titer Glo reagent. The mixture was incubated for 1-2 minutes on a shaker and the plate was read for luminescence intensity to determine the compound cytotoxicity. The cell culture supernatant collected above was used to carry out IL23 ELISA (65 μl—Supernatant) and IL10 ELISA (90 μl—Supernatant) as described below.
Human IL-23 (p19/p40) ELISA Protocol (e-Biosciences)
To 10.5 ml PBS add 50 μl of anti-IL23 (p19) was added capture antibody (2.5 μg/ml). The mixture was mixed well and 100 μl of the coating solution was added to each well of the 96 well white plates from Pierce. The wells were covered and incubated overnight at 4° C.
The anti-IL23 (p19)-antibody-coated plates were washed 2× using TBST (use plate washer) and blocked using 200 μl of 0.5% Casein for 1.5-2 hours at room temperature with shaking.
Addition of Supernatant and Detection:
The plates were washed 2× using TBST and the supernatant was transferred (65 μl/well) to the above pre-blocked/IL23(p19)-antibody-coated 96 well plate, and incubated at room temperature for 1.5 hours with shaking.
The plates were washed 4× using TBST (plate washer) and 100 μl/well detection antibody solution prepared from 2 μl of biotin labeled anti-IL-12 (p40/p70) antibody in 11 ml 1% BSA/PBS solution (1-5000 dilution) was added. The plates were incubated for 1 hour with shaking at Room temperature.
Again, the plates were washed 4× with TBST and 100 μl of HRP labeled Streptavidin (R&D Systems) solution (10 μl/10 ml 1% BSA solution) was added, and the plates were incubated at room temperature for another 45 minutes with shaking.
After 45 minutes, the plates were washed with TBST 4× and 100 μl/well Super Signal ELISA Pico Chemiluminescent Substrate from Pierce (3.5 ml A+3.5 ml B+3.5 ml MQ water) was added. The plates were shaken for 1-2 minutes then read on a plate reader.

IL-23p19 = assay: LPS Induced IL23p19 in THP-1 Cells (with IFNγ Primed) Assay; type: cell-based, human; settings: Homo sapiens, IFNγ (50 ng/mL) primed, 1 hour compound pre-incubation, LPS 1 ug/mL 18 hours, 10 pt, read-out: IL23-p19 ELISA, THP1-IFNy, LPS, 10 pt EC50
Procedure, shortened: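 THP-1 cells (50K/well) primed ~18 h with IFNγ (50 ng/mL) in RPMI/10% FBS, then incubated with compound in duplicate for 18 h at 37° C. Supernatant IL-23p19 measured by chemiluminescent sandwich ELISA, giving EC50 by curve fitting. Toxicity assessed in parallel on the remaining cells by Cell Titer Glo.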

Structure (SMILES)	EC50 (IL-23 (p19/p40))	EC50 (IL-23p19; THP-1, THP-1 cells)	EC50 (IL-23 (p19/p40); Homo sapiens)	EC50 (IL-23p19; THP-1 cells)
O=C(Nc1cn(C2COC2)nc1-c1ccccn1)c1cccc(Br)n1 [Compound I-113, 6-bromo-N-(1-(oxetan-3-yl)-3-(pyridin-2-yl)-1H-pyrazol-4-yl)picolinamide]	10.9 µM	8.04 µM		
Cn1cc(NC(=O)c2cccc(-c3cncc(NC4CCOCC4)c3)n2)c(-c2ccccn2)n1 [Compound I-30, N-(1-methyl-3-(pyridin-2-yl)-1H-pyrazol-4-yl)-5′-((tetrahydro-2H-pyran-4-yl)amino)-[2,3′-bipyridine]-6-carboxamide]	3.21 µM	0.772 µM		
COc1cncc(-c2cccc(C(=O)Nc3cn(C)nc3-c3ccccn3)n2)c1 [Compound I-19, 5′-methoxy-N-(1-methyl-3-(pyridin-2-yl)-1H-pyrazol-4-yl)-[2,3′-bipyridine]-6-carboxamide]	5.63 µM	2.54 µM		
CN1CCN(c2cncc(-c3cccc(C(=O)Nc4cn(C)nc4-c4ccccn4)n3)c2)CC1 [Compound I-38, N-(1-methyl-3-(pyridin-2-yl)-1H-pyrazol-4-yl)-5′-(4-methylpiperazin-1-yl)-[2,3′-bipyridine]-6-carboxamide]	33.7 µM	6.2 µM		
CS(=O)(=O)Nc1cncc(-c2cccc(C(=O)Nc3cn(C4COC4)nc3-c3ccccn3)n2)c1 [Compound I-119, sodium (methylsulfonyl)(6-((1-(oxetan-3-yl)-3-(pyridin-2-yl)-1H-pyrazol-4-yl)carbamoyl)-[2,3′-bipyridine]-5′-yl)amide]			1 µM	1.02 µM
Cn1cc(NC(=O)c2cncc(-c3cn[nH]c3)n2)c(-c2ccccn2)n1 [Compound I-122, N-(1-methyl-3-(pyridin-2-yl)-1H-pyrazol-4-yl)-6-(1H-pyrazol-4-yl)pyrazine-2-carboxamide]	3.78 µM	0.873 µM		

Further compounds by falling EC50 (IL-23 (p19/p40)), results first:

EC50 (IL-23 (p19/p40))	EC50 (IL-23p19; THP-1, THP-1 cells)	Structure (SMILES)	EC50 (IL-23 (p19/p40); Homo sapiens)	EC50 (IL-23p19; THP-1 cells)
2.47 µM	23.9 µM	CN(C)c1cccc(-c2cccc(C(=O)Nc3cn(C)nc3-c3ccccn3)n2)c1 [Compound I-59, 6-(3-(dimethylamino)phenyl)-N-(1-methyl-3-(pyridin-2-yl)-1H-pyrazol-4-yl)picolinamide]		
2.42 µM	0.557 µM	COCCCn1cc(NC(=O)c2cccc(-c3cncc(C)c3)n2)c(-c2ccccn2)n1 [Compound I-169, N-(1-(3-methoxypropyl)-3-(pyridin-2-yl)-1H-pyrazol-4-yl)-5′-methyl-[2,3′-bipyridine]-6-carboxamide]		
2.41 µM	0.29 µM	COc1ccc(-c2nn(C)cc2NC(=O)c2cccc(-c3cn[nH]c3)n2)nc1 [Compound I-68, N-(3-(5-methoxypyridin-2-yl)-1-methyl-1H-pyrazol-4-yl)-6-(1H-pyrazol-4-yl)picolinamide]		
2.21 µM	1.26 µM	Cn1cc(-c2cccc(C(=O)Nc3cn(C4COC4)nc3-c3ccccn3)n2)cn1 [Compound I-134, 6-(1-methyl-1H-pyrazol-4-yl)-N-(1-(oxetan-3-yl)-3-(pyridin-2-yl)-1H-pyrazol-4-yl)picolinamide]		
1.81 µM	1.07 µM	Cc1cncc(-c2cncc(C(=O)Nc3cn(C)nc3-c3ccccn3)n2)c1 [Compound I-121, N-(1-methyl-3-(pyridin-2-yl)-1H-pyrazol-4-yl)-6-(5-methylpyridin-3-yl)pyrazine-2-carboxamide]		
1.54 µM	6.64 µM	Cn1cc(NC(=O)c2nccc(-c3cn[nH]c3)n2)c(-c2ccccn2)n1 [Compound I-124, N-(1-methyl-3-(pyridin-2-yl)-1H-pyrazol-4-yl)-4-(1H-pyrazol-4-yl)pyrimidine-2-carboxamide]		
0.167 µM	0.499 µM	COC1CC(n2cc(NC(=O)c3cccc(-c4cncc(C)c4)n3)c(-c3ccccn3)n2)C1 (centres unmarked) [Compound I-162, N-(1-(3-methoxycyclobutyl)-3-(pyridin-2-yl)-1H-pyrazol-4-yl)-5′-methyl-[2,3′-bipyridine]-6-carboxamide formate]		
